According to ChEMBL document CHEMBL3991601, “The target landscape of clinical kinase drugs” (Science, 2017):
Active and inactive are the calls of the source.

Key:
[1] = target: T1, Eukaryotic translation initiation factor 5B (Homo sapiens, UniProt O60841)
T1 sequence (O60841 whole entry): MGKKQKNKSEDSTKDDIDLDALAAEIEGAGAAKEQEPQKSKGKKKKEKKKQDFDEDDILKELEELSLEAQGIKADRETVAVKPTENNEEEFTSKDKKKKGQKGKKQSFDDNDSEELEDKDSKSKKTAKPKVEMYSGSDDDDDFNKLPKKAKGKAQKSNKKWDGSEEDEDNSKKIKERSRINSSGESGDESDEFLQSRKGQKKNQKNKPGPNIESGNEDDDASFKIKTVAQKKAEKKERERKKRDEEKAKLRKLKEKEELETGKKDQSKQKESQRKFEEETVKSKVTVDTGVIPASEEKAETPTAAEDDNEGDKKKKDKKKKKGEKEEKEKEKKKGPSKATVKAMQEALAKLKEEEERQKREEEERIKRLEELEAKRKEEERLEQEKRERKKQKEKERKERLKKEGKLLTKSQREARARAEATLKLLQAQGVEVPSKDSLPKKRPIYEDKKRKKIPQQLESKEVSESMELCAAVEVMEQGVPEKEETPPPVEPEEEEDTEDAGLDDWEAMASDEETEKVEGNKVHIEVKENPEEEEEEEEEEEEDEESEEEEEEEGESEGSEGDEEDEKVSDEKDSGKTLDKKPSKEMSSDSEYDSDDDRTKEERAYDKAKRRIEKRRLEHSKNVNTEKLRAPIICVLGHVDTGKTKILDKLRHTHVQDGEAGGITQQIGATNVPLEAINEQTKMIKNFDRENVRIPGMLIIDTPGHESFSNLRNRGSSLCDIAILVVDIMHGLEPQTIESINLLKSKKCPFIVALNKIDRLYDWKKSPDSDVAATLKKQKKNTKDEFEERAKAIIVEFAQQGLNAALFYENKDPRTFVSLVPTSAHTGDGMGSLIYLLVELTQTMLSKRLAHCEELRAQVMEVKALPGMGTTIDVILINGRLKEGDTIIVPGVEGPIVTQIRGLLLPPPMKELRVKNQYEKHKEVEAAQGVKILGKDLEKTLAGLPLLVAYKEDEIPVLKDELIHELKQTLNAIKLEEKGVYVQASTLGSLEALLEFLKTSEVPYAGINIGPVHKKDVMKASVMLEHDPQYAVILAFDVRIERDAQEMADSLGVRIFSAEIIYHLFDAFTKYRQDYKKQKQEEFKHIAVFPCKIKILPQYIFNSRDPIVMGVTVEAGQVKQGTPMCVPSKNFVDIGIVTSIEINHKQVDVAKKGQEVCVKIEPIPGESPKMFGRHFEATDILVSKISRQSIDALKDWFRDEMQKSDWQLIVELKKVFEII

ADP/ATP translocase 3 = target: T2, ADP/ATP translocase 3 (Homo sapiens, UniProt P12236)
T2 sequence (P12236 whole entry): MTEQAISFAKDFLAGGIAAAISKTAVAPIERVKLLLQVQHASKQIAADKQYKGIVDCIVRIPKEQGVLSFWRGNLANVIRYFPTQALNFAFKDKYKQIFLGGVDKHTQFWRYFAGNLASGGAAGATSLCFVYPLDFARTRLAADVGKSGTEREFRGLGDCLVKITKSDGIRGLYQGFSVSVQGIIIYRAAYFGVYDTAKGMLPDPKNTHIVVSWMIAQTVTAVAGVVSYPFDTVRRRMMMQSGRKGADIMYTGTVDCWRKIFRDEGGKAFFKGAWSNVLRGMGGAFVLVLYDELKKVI

[2] = target: Dual specificity mitogen-activated protein kinase kinase 1 (Homo sapiens, UniProt Q02750)
[3] = target: Atypical kinase COQ8A, mitochondrial (Homo sapiens, UniProt Q8NI60)
[4] = target: Serine/threonine-protein kinase pim-1 (Homo sapiens, UniProt P11309)
[5] = target: Myosin light chain kinase, smooth muscle (Homo sapiens, UniProt Q15746)
[6] = target: Ribosomal protein S6 kinase alpha-6 (Homo sapiens, UniProt Q9UK32)
Ephrin type-A receptor 4 = Ephrin type-A receptor 4 (Homo sapiens, UniProt P54764)
[7] = target: Bone morphogenetic protein receptor type-1A (Homo sapiens, UniProt P36894)
[8] = target: T3, Inhibitor of nuclear factor kappa-B kinase subunit epsilon (Homo sapiens, UniProt Q14164)
T3 sequence (Q14164 whole entry): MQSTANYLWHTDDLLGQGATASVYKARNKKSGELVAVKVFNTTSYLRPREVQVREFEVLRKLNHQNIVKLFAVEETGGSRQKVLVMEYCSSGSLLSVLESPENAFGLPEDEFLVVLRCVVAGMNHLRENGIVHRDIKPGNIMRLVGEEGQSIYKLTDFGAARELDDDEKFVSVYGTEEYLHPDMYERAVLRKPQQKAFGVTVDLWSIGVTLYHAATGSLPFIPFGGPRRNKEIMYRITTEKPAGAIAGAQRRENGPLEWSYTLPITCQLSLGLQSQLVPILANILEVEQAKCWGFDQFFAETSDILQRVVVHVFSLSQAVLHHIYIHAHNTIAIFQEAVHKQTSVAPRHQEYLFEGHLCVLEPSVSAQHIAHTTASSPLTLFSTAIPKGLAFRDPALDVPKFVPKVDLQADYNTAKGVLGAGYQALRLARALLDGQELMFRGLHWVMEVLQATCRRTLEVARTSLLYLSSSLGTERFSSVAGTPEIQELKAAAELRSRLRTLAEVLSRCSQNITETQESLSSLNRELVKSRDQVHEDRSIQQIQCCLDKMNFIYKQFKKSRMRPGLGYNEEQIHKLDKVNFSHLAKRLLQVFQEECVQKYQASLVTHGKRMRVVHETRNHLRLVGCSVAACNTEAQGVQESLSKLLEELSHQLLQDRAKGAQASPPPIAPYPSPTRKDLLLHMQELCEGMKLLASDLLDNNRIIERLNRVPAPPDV

Adenosine kinase = Adenosine kinase (Homo sapiens, UniProt P55263)
[9] = target: Serine/threonine-protein kinase 16 (Homo sapiens, UniProt O75716)
[10] = target: Casein kinase I isoform gamma-1 (Homo sapiens, UniProt Q9HCP0)
Further: in the data inactive means no Kd found up to 30 µM.

Sequence of Adenosine kinase (P55263 whole entry): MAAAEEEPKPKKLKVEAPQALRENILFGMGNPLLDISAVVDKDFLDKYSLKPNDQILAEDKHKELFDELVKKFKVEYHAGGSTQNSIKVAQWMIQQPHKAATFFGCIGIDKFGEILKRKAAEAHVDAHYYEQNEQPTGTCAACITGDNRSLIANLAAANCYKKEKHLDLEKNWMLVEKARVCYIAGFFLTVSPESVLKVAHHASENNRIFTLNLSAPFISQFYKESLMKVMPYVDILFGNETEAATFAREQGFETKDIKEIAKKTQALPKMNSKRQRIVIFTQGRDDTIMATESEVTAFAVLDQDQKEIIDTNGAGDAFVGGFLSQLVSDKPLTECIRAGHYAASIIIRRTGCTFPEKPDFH
Sequence of Ribosomal protein S6 kinase alpha-6 (Q9UK32 whole entry): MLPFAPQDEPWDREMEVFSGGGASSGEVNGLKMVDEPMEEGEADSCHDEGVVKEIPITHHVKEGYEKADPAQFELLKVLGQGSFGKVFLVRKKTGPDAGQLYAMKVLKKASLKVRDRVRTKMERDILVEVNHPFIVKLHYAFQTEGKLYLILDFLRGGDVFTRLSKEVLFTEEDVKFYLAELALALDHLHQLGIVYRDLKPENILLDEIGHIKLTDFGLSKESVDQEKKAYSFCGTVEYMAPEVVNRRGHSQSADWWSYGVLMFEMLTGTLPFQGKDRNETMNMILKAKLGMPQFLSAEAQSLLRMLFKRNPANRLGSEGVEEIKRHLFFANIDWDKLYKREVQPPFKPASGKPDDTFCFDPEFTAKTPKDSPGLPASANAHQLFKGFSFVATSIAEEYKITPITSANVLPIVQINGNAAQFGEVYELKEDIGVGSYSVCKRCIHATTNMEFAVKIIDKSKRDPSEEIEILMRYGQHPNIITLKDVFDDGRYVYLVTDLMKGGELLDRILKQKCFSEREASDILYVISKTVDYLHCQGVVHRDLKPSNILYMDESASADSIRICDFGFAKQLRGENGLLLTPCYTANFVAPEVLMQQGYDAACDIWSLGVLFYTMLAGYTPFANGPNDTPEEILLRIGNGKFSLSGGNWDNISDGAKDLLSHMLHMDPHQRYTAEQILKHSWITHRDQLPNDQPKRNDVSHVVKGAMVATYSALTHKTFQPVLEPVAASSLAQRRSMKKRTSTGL
Sequence of Casein kinase I isoform gamma-1 (Q9HCP0 whole entry, canonical isoform): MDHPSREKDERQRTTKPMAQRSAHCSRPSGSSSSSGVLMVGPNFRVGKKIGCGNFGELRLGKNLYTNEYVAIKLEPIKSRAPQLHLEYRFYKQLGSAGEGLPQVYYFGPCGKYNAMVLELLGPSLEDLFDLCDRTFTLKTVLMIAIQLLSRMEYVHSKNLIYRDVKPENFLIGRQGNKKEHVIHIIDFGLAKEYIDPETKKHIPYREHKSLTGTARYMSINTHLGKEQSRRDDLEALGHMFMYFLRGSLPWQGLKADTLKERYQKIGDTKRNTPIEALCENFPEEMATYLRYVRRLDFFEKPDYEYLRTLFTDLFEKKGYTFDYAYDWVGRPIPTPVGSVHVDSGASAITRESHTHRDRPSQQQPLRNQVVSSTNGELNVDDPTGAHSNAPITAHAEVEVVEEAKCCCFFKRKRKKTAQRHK
Sequence of Myosin light chain kinase, smooth muscle (Q15746 whole entry): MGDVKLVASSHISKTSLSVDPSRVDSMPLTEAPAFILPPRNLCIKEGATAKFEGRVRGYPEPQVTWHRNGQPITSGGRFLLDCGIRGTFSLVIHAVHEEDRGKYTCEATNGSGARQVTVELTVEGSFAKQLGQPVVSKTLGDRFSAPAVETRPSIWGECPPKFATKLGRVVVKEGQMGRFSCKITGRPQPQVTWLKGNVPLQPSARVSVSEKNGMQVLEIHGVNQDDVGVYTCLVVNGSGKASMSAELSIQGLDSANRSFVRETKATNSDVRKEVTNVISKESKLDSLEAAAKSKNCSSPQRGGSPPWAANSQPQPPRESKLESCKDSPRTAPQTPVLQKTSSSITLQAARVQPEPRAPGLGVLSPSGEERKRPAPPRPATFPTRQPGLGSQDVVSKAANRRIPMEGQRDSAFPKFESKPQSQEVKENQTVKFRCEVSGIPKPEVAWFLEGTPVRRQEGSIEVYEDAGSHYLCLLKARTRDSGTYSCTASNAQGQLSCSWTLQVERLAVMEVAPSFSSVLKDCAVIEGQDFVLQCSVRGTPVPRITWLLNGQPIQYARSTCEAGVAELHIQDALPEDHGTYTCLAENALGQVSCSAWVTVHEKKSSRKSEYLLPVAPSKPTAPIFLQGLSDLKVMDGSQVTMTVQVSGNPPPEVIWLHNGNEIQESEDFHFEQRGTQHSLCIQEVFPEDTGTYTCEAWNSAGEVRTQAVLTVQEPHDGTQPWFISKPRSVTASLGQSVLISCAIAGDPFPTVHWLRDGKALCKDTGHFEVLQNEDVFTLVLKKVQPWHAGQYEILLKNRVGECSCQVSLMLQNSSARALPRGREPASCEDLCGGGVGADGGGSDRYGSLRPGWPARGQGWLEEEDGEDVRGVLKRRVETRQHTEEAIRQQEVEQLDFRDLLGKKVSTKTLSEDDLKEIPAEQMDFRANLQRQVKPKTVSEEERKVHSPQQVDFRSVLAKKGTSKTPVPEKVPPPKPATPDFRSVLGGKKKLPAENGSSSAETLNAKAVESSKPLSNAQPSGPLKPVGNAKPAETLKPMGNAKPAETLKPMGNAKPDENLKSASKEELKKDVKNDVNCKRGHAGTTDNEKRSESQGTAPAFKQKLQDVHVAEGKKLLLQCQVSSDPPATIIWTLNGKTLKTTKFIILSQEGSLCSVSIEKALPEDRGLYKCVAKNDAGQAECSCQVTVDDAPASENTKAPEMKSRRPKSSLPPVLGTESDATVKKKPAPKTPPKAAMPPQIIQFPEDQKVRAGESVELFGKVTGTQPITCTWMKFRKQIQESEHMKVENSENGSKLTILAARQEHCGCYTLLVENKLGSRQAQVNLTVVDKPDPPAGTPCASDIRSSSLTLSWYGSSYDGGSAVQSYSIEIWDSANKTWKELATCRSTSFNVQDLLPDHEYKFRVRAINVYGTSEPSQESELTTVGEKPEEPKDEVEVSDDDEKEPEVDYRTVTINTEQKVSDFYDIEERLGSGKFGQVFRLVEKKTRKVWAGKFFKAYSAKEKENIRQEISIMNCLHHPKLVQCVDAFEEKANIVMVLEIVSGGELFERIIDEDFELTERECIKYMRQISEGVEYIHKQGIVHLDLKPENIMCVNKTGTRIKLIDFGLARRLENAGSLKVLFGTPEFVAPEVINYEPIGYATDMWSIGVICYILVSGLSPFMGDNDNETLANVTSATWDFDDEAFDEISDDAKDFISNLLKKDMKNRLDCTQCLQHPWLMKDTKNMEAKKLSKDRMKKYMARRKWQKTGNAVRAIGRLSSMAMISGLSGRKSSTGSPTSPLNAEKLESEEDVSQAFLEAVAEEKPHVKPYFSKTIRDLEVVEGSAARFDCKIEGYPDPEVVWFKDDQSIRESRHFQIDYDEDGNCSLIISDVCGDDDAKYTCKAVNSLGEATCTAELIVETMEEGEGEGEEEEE
Sequence of Bone morphogenetic protein receptor type-1A (P36894 whole entry): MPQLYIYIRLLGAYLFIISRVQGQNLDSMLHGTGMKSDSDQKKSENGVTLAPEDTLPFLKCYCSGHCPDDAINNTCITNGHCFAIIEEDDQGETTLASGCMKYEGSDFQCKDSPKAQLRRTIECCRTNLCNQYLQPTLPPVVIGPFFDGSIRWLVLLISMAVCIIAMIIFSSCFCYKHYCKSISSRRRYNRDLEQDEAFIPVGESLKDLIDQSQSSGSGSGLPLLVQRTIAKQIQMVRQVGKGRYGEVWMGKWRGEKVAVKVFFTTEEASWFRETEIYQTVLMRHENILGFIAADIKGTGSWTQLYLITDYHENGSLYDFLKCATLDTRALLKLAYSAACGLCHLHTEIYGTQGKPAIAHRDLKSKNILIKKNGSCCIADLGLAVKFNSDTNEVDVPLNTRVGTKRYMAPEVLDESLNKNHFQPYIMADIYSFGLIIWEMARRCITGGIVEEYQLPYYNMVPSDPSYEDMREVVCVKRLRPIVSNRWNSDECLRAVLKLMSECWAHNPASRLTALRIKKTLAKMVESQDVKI
Sequence of Ephrin type-A receptor 4 (P54764 whole entry): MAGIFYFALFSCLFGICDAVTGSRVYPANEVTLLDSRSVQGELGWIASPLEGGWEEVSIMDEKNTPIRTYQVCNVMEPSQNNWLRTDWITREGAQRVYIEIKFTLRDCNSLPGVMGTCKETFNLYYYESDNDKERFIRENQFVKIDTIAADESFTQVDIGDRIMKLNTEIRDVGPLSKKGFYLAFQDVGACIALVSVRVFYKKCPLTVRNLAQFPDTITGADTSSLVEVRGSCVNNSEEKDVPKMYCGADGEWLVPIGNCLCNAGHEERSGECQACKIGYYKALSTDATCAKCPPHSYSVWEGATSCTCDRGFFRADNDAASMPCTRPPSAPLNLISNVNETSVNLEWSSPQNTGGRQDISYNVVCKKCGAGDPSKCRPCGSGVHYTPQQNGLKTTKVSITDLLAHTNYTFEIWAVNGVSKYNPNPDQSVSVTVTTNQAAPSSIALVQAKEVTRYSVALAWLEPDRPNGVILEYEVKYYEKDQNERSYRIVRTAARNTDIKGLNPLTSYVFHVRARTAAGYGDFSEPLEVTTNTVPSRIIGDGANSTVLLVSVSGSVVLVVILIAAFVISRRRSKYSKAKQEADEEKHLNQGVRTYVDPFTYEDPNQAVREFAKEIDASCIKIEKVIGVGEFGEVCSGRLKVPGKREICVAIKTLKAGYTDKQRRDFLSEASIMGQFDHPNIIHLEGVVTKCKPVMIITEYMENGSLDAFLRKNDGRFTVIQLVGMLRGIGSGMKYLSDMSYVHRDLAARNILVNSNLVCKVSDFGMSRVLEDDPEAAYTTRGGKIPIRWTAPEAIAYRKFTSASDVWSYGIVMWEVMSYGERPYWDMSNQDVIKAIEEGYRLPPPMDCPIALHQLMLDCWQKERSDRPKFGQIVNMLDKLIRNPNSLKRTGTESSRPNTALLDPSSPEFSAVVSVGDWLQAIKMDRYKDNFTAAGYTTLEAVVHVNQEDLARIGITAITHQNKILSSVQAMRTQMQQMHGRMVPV

| SMILES | Kd [1] | Kd (ADP/ATP translocase 3) | Kd [2] | Kd [3] | Kd [4] | Kd [5] | Kd [6] | Kd (Ephrin type-A receptor 4) | Kd [7] | Kd [8] | Kd (Adenosine kinase) | Kd [9] | Kd [10] |
| --- | --- | --- | --- | --- | --- | --- | --- | --- | --- | --- | --- | --- | --- |
| Cc1cnc(NC(=O)Nc2cc(Br)c(C)cc2OC[C@@H]2CNCCO2)cn1 [RABUSERTIB] | > 30 µM (inactive) | > 30 µM (inactive) | > 30 µM (inactive) | > 30 µM (inactive) | > 30 µM (inactive) | > 30 µM (inactive) | > 30 µM (inactive) | > 30 µM (inactive) | > 30 µM (inactive) | > 30 µM (inactive) | > 30 µM (inactive) | > 30 µM (inactive) | > 30 µM (inactive) |
| O=C(Nc1nc2cccc(-c3ccc(CN4CCS(=O)(=O)CC4)cc3)n2n1)C1CC1 [FILGOTINIB] | > 30 µM (inactive) | > 30 µM (inactive) | > 30 µM (inactive) | > 30 µM (inactive) | > 30 µM (inactive) | > 30 µM (inactive) | > 30 µM (inactive) | > 30 µM (inactive) | > 30 µM (inactive) | > 30 µM (inactive) | > 30 µM (inactive) | > 30 µM (inactive) | > 30 µM (inactive) |
| Cc1nc(Nc2n[nH]c3c2CN(C(=O)N[C@H](CN(C)C)c2ccccc2)C3(C)C)c2sccc2n1 [PF-03758309] | > 30 µM (inactive) | > 30 µM (inactive) | > 30 µM (inactive) | > 30 µM (inactive) | > 30 µM (inactive) | > 30 µM (inactive) | 0.004 µM (active) | > 30 µM (inactive) | > 30 µM (inactive) | 0.658 µM (active) | > 30 µM (inactive) | 5.45 µM (active) | > 30 µM (inactive) |
| Cc1csc(-c2nnc(Nc3ccc(Oc4ncccc4-c4ccnc(N)n4)cc3)c3ccccc23)c1 [AMG-900] | > 30 µM (inactive) | > 30 µM (inactive) | 3.31 µM (active) | > 30 µM (inactive) | > 30 µM (inactive) | > 30 µM (inactive) | > 30 µM (inactive) | > 30 µM (inactive) | > 30 µM (inactive) | > 30 µM (inactive) | > 30 µM (inactive) | > 30 µM (inactive) | > 30 µM (inactive) |
| C=CC(=O)N1CCC[C@H](n2c(=O)n(-c3ccc(Oc4ccccc4)cc3)c3c(N)ncnc32)C1 | > 30 µM (inactive) | > 30 µM (inactive) | > 30 µM (inactive) | > 30 µM (inactive) | > 30 µM (inactive) | > 30 µM (inactive) | > 30 µM (inactive) | > 30 µM (inactive) | > 30 µM (inactive) | > 30 µM (inactive) | > 30 µM (inactive) | > 30 µM (inactive) | > 30 µM (inactive) |
| COc1ccc(S(=O)(=O)N(C(C)=O)c2ccccc2/C=C/c2cc[n+]([O-])cc2)cc1 [HMN-214] | > 30 µM (inactive) | > 30 µM (inactive) | > 30 µM (inactive) | > 30 µM (inactive) | > 30 µM (inactive) | > 30 µM (inactive) | > 30 µM (inactive) | > 30 µM (inactive) | > 30 µM (inactive) | > 30 µM (inactive) | > 30 µM (inactive) | > 30 µM (inactive) | > 30 µM (inactive) |
| CO[C@H]1C[C@@H]2CC[C@@H](C)[C@@](O)(O2)C(=O)C(=O)N2CCCC[C@H]2C(=O)O[C@H]([C@H](C)C[C@@H]2CC[C@@H](OC(=O)C(C)(CO)CO)[C@H](OC)C2)CC(=O)[C@H](C)/C=C(\C)[C@@H](O)[C@@H](OC)C(=O)[C@H](C)C[C@H](C)/C=C/C=C/C=C/1C [TEMSIROLIMUS] | > 30 µM (inactive) | > 30 µM (inactive) | > 30 µM (inactive) | > 30 µM (inactive) | > 30 µM (inactive) | > 30 µM (inactive) | > 30 µM (inactive) | > 30 µM (inactive) | > 30 µM (inactive) | > 30 µM (inactive) | > 30 µM (inactive) | > 30 µM (inactive) | > 30 µM (inactive) |
| Cn1cnc2c(F)c(Nc3ccc(Br)cc3F)c(C(=O)NOCCO)cc21 [BINIMETINIB] | > 30 µM (inactive) | > 30 µM (inactive) | 0.045 µM (active) | > 30 µM (inactive) | > 30 µM (inactive) | > 30 µM (inactive) | > 30 µM (inactive) | > 30 µM (inactive) | > 30 µM (inactive) | > 30 µM (inactive) | > 30 µM (inactive) | > 30 µM (inactive) | > 30 µM (inactive) |
| COc1c(OCCCN2CCOCC2)ccc2c1N=C(NC(=O)c1cnc(N)nc1)N1CCN=C21 [COPANLISIB] | > 30 µM (inactive) | > 30 µM (inactive) | > 30 µM (inactive) | > 30 µM (inactive) | > 30 µM (inactive) | > 30 µM (inactive) | > 30 µM (inactive) | > 30 µM (inactive) | > 30 µM (inactive) | > 30 µM (inactive) | > 30 µM (inactive) | > 30 µM (inactive) | > 30 µM (inactive) |
| O=c1[nH]ccc2cc(OC3CCNCC3)ccc12 [SAR-407899 FREE BASE] | > 30 µM (inactive) | > 30 µM (inactive) | > 30 µM (inactive) | > 30 µM (inactive) | > 30 µM (inactive) | > 30 µM (inactive) | > 30 µM (inactive) | > 30 µM (inactive) | > 30 µM (inactive) | > 30 µM (inactive) | > 30 µM (inactive) | > 30 µM (inactive) | > 30 µM (inactive) |
| C=CC(=O)Nc1cc2c(Nc3ccc(F)c(Cl)c3)ncnc2cc1C#CC(C)(C)N1CCN(C)CC1 [AV-412 FREE BASE] | > 30 µM (inactive) | > 30 µM (inactive) | > 30 µM (inactive) | > 30 µM (inactive) | > 30 µM (inactive) | > 30 µM (inactive) | > 30 µM (inactive) | > 30 µM (inactive) | > 30 µM (inactive) | > 30 µM (inactive) | > 30 µM (inactive) | > 30 µM (inactive) | > 30 µM (inactive) |
